Results reported in patent publication US9017692B2, “Antimicrobial agent, bacterial strain, biosynthesis, and methods of use” (priority 2011, dated 2015).
≈ marks a conversion by molar mass, not a printed value. Read-outs that look alike come from different tables or passages of the source.

Experiments:
[1] = tested on: DR-MRSA from MW2 SP SAU.1616; test: microbe, parasite or virus in culture; details: Staphylococcus aureus, MRSA, read-out: Minimum inhibitory concentration (MIC)
Procedure: (§1) The activity of paenibacterin against several strains of Gram-positive and Gram-negative foodborne pathogens is summarized in Table 10. The data is reported as minimum inhibitory concentrations (MIC) as an average of three replicates for paenibacterin against the various listed bacterial strains. […] MICs were determined according to the CLSI broth microdilution method (see, Clinical and Laboratory Standards Institute (CLSI). 2009. Methods for dilution antimicrobial susceptibility tests for bacteria that grow aerobically; approved standard. […]. CLSI, Wayne, Pa.). Briefly, HPLC-purified paenibacterin was dissolved in methanol and diluted to appropriate concentration with cation-adjusted Mueller-Hinton II broth (Difco). Aliquots (25 μl) of serially-diluted paenibacterin was dispensed into wells of a 96-well plate; an equal amount of 1/10 diluted overnight bacterial culture was added to wells. Plates were incubated at 35° C. for 24 h. Cell growth after incubation was examined and determined using a microtiter plate reader at 600 nm. Concentration of paenibacterin is determined based on a molecular weight of 1604 Da.
(§2) The activity of paenibacterin was further tested against clinical isolates of the following Gram-positive bacteria: methicillin-sensitive Staphylococcus aureus (MSSA), methicillin-resistant S. aureus (MRSA), vancomycin-sensitive Enterococcus faecalis, vancomycin-resistant E. faecalis (VRE), Streptococcus pneumoniae, and laboratory derived daptomycin-resistant (DR) MSSA, MRSA, and VRE strains. The MICs were determined using the above described CLSI broth microdilution method, in which the method was performed with non-binding surface coated (NBS) 96-well plates.

[2] = tested on: DS-VRE ATCC 700802 EFS.807; test: microbe, parasite or virus in culture; details: Enterococcus faecalis, ATCC700802|VRE, read-out: Minimum inhibitory concentration (MIC)
Procedure: as §1, §2

[3] = tested on: DR-VRE from EFS.807 EFS.2731; test: microbe, parasite or virus in culture; details: Enterococcus faecalis, VRE, read-out: Minimum inhibitory concentration (MIC)
Procedure: as §1, §2

MSSA ATCC 29213 SAU.42 = test: microbe, parasite or virus in culture; details: Staphylococcus aureus, ATCC29213|MSSA, read-out: Minimum inhibitory concentration (MIC)
Procedure: as §1, §2

MRSA ATCC 43300 SAU.399 = test: microbe, parasite or virus in culture; details: Staphylococcus aureus, ATCC43300|MRSA, read-out: Minimum inhibitory concentration (MIC)
Procedure: as §1, §2

WT ATCC 29212 EFS.43 = test: microbe, parasite or virus in culture; details: Enterococcus faecalis, ATCC29212, read-out: Minimum inhibitory concentration (MIC)
Procedure: as §1, §2

WT ATCC 49619 SPN.31 = test: microbe, parasite or virus in culture; details: Streptococcus pneumoniae, ATCC49619, read-out: Minimum inhibitory concentration (MIC)
Procedure: as §1, §2

[4] = tested on: DR-MSSA from SAU.42 SAU.278; test: microbe, parasite or virus in culture; details: Staphylococcus aureus, MSSA, read-out: Minimum inhibitory concentration (MIC)
Procedure: as §1, §2

ATCC 25922 ECO.35 = test: MIC, CLSI broth microdilution, Gram-negative clinical isolates; type: cell-based, Escherichia coli; details: Escherichia coli, read-out: Minimum inhibitory concentration (MIC)
Procedure: (§3) Plates were incubated at 35° C. for 24 h.
(§4) The activity of paenibacterin was also tested against clinical isolates of the following Gram-negative bacterial strains: four strains of the species Pseudomonas aeruginosa (PAE), three strains of the species Acinetobacter baumannii (ABA), two strains of the species Escherichia coli (ECO), and four strains of the species Klebsiella pneumoniae (KPN). Particularly, the strains of Gram-negative bacteria included polymyxin B-resistant (PMB-R) and polymyxin B-sensitive (PMB-S) strains of each above listed species. The MICs were determined using the above described CLSI broth microdilution method, in which the method was performed with both non-binding surface coated (NBS) and polystyrene (PS) 96-well plates (Tables 11 and 12, respectively). The MICs were generally lower in the NBS 96-well plates as compared to the PS 96-well plates.

ECO.2276 = test: as above; type: cell-based, Escherichia coli; details: Escherichia coli, read-out: Minimum inhibitory concentration (MIC)
Procedure: as §3, §4

PAE.2281 = test: as above; type: cell-based, Pseudomonas aeruginosa; details: Pseudomonas aeruginosa, read-out: Minimum inhibitory concentration (MIC)
Procedure: as §3, §4

PAE.44 = test: as above; type: cell-based, Pseudomonas aeruginosa
Procedure: as §3, §4

PAE.2325 = test: as above; type: cell-based, Pseudomonas aeruginosa; details: Pseudomonas aeruginosa, read-out: Minimum inhibitory concentration (MIC)
Procedure: as §3, §4

PAE.999 = test: as above; type: cell-based, Pseudomonas aeruginosa; details: Pseudomonas aeruginosa, read-out: Minimum inhibitory concentration (MIC)
Procedure: as §3, §4

PMB-S, KPN.2461 = test: as above; type: cell-based, Klebsiella pneumoniae
Procedure: as §3, §4

KPN.674 = test: as above; type: cell-based, Klebsiella pneumoniae; details: Klebsiella pneumoniae, read-out: Minimum inhibitory concentration (MIC)
Procedure: as §3, §4

PMB-R, KPN.2463 = test: as above; type: cell-based, Klebsiella pneumoniae
Procedure: as §3, §4

KPN.2317 = test: as above; type: cell-based, Klebsiella pneumoniae; details: Klebsiella pneumoniae, read-out: Minimum inhibitory concentration (MIC)
Procedure: as §3, §4

ABA.1570 = test: as above; type: cell-based, Acinetobacter baumannii; details: Acinetobacter baumannii, read-out: Minimum inhibitory concentration (MIC)
Procedure: as §3, §4

ABA.2232 = test: as above; type: cell-based, Acinetobacter baumannii; details: Acinetobacter baumannii, read-out: Minimum inhibitory concentration (MIC)
Procedure: as §3, §4

ABA.2315 = test: as above; type: cell-based, Acinetobacter baumannii
Procedure: as §3, §4

NC[C@H]1O[C@H](O[C@H]2[C@H](O)[C@@H](O[C@H]3O[C@H](CO)[C@@H](O)[C@H](N)[C@H]3O)[C@H](N)C[C@@H]2N)[C@H](N)C[C@@H]1O [tobramycin]
MIC [1]: 0.5 µg/mL (≈ 1.07 µM) | MIC [2]: > 32 µg/mL | MIC [3]: > 32 µg/mL | MIC (MSSA ATCC 29213 SAU.42): 0.5 µg/mL (≈ 1.07 µM) | MIC (MRSA ATCC 43300 SAU.399): > 32 µg/mL | MIC (WT ATCC 29212 EFS.43): 8 µg/mL (≈ 17.1 µM) | MIC (WT ATCC 49619 SPN.31): 0.25 µg/mL (≈ 0.535 µM) | MIC [4]: 0.5 µg/mL (≈ 1.07 µM) | MIC (ATCC 25922 ECO.35; ATCC25922, ECO.35 (ATCC 25922), NBS 96-well plates): 1 µg/mL (≈ 2.14 µM) | MIC (ATCC 25922 ECO.35; ATCC25922, ECO.35, PS 96-well plates): 1 µg/mL (≈ 2.14 µM) | MIC (ECO.2276; NBS 96-well plates): 1 to 2 µg/mL (≈ 2.14 to 4.28 µM) | MIC (ECO.2276; PS 96-well plates): 2 µg/mL (≈ 4.28 µM) | MIC (PAE.2281; NBS 96-well plates): 1 to 2 µg/mL (≈ 2.14 to 4.28 µM) | MIC (PAE.2281; PS 96-well plates): 1 µg/mL (≈ 2.14 µM) | MIC (PAE.44; Pseudomonas aeruginosa, non-binding surface coated (NBS) 96-well plates, read-out: Minimum inhibitory concentration (MIC)): 0.5 µg/mL (≈ 1.07 µM) | Minimum inhibitory concentration (MIC) (PAE.44; polystyrene (PS) 96-well plates): 0.5 µg/mL (≈ 1.07 µM) | MIC (PAE.2325; NBS 96-well plates): > 32 µg/mL | MIC (PAE.2325; PS 96-well plates): > 32 µg/mL | MIC (PAE.999; NBS 96-well plates): 32 µg/mL (≈ 68.4 µM) | MIC (PAE.999; PS 96-well plates): > 32 µg/mL | Minimum inhibitory concentration (MIC) (PMB-S, KPN.2461; KPN.2461, PS 96-well plates): 32 µg/mL (≈ 68.4 µM) | MIC (PMB-S, KPN.2461; Klebsiella pneumoniae, KPN.2461 (PMB-S), NBS 96-well plates, read-out: Minimum inhibitory concentration (MIC)): 32 µg/mL (≈ 68.4 µM) | MIC (KPN.674; NBS 96-well plates): 8 µg/mL (≈ 17.1 µM) | MIC (KPN.674; PS 96-well plates): 8 µg/mL (≈ 17.1 µM) | Minimum inhibitory concentration (MIC) (PMB-R, KPN.2463; KPN.2463, PS 96-well plates): 32 µg/mL (≈ 68.4 µM) | MIC (PMB-R, KPN.2463; Klebsiella pneumoniae, KPN.2463 (PMB-R), NBS 96-well plates, read-out: Minimum inhibitory concentration (MIC)): 32 µg/mL (≈ 68.4 µM) | MIC (KPN.2317; NBS 96-well plates): > 32 µg/mL | MIC (KPN.2317; PS 96-well plates): > 32 µg/mL | MIC (ABA.1570; NBS 96-well plates): 32 µg/mL (≈ 68.4 µM) | MIC (ABA.1570; PS 96-well plates): 16 µg/mL (≈ 34.2 µM) | MIC (ABA.2232; NBS 96-well plates): 0.5 µg/mL (≈ 1.07 µM) | MIC (ABA.2232; PS 96-well plates): 1 µg/mL (≈ 2.14 µM) | MIC (ABA.2315; Acinetobacter baumannii, NBS 96-well plates, read-out: Minimum inhibitory concentration (MIC)): > 32 µg/mL | Minimum inhibitory concentration (MIC) (ABA.2315; PS 96-well plates): >32 µg/mL
